ChEMBL document CHEMBL1201862, “PubChem BioAssay data set” (2004)
Active and inactive are the calls of the source.

Key:
[1] = test system: HEK293; assay: cytotoxicity in HEK293T NF-kB-Luc cells, SAR follow-up, cytotoxicity control for NF-kB activator project, cell-based, resazurin fluorescence (AID 493251); type: functional; settings: Homo sapiens
[2] = target: Delta-type opioid receptor (Homo sapiens, UniProt P41143); assay: Counterscreen for agonists of heterodimerization of the mu 1 (OPRM1) and delta 1 (OPRD1) opioid receptors: Luminescence-based cell-based high throughput dose response assay to identify agonists of OPRD1 homodimerization. [Related pubchem assays (depositor defined):AID504326, AID504355, AID504692, AID504904, AID504905]; type: functional
[3] = target: Mu-type opioid receptor (Homo sapiens, UniProt P35372); assay: Counterscreen for agonists of heterodimerization of the mu 1 (OPRM1) and delta 1 (OPRD1) opioid receptors: Luminescence-based cell-based high throughput dose response assay to identify agonists of OPRM1 homodimerization.; type: functional;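 further: U2OS cells expressing OPRM1 and beta-arrestin as split beta-galactosidase partners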
[4] = target: 5-hydroxytryptamine receptor 5A (Homo sapiens, UniProt P47898); assay: Counterscreen for agonists of OPRM1-OPRD1 heterodimerization: luminescence-based cell-based high throughput dose response assay to identify agonists of 5-hydroxytryptamine (serotonin) 5A receptor (HTR5A). [Related pubchem assays (depositor defined):AID504326, AID504355, AID504692, AID504904, AID504905]; type: functional
[5] = target: T1, Short transient receptor potential channel 4 (Mus musculus, UniProt Q9QUQ5); assay: mouse TRPC4 channel activators, dose response, cell-based, HEK293 TRPC4/mu-opioid, Fluo-4 calcium (AID 434937); type: functional
T1 sequence (Q9QUQ5 whole entry): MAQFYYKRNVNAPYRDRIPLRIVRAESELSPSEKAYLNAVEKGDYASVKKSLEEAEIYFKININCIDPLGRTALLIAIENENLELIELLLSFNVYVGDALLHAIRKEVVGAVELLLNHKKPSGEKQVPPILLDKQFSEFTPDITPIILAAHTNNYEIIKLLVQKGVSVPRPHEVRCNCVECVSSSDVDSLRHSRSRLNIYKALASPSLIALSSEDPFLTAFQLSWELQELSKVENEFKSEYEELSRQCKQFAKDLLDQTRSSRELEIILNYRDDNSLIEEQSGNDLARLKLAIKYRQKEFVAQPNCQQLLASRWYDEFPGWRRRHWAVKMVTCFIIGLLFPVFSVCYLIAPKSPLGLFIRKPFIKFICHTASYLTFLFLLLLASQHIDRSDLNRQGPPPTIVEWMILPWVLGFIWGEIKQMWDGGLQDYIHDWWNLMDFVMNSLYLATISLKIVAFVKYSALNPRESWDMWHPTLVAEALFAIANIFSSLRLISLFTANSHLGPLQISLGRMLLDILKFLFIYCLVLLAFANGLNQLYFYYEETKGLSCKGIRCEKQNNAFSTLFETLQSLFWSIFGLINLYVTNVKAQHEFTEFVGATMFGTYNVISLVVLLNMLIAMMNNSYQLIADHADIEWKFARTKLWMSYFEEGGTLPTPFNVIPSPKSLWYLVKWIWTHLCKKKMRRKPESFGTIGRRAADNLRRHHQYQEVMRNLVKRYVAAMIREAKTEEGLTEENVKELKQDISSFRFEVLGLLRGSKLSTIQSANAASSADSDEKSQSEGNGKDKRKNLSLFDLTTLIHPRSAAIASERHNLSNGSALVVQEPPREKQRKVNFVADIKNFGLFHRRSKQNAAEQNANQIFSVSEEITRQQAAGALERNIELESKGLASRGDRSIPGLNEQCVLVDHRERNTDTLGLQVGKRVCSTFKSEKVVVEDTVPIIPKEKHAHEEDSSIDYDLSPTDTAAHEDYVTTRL

[6] = test system: Escherichia coli; assay: microbe, parasite or virus in culture
[7] = test system: Escherichia coli; assay: microbe, parasite or virus in culture; remark: listed apart in the source
[8] = target: T2, Endoribonuclease toxin MazF (Escherichia coli K-12, UniProt P0AE70); assay: fluorescent RNA oligo signal without MazF, dose response, counter-screen for MazEF activator project, biochemical, fluorescence, single-stranded RNase substrate (AID 588502); type: functional
T2 sequence (P0AE70 whole entry): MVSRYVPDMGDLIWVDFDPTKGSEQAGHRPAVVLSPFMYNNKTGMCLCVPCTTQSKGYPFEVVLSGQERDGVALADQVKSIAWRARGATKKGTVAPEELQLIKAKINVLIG

[9] = target: T2, Endoribonuclease toxin MazF; assay: MazF toxin RNase activators, dose response, biochemical, fluorescence, single-stranded RNA substrate, uHTS hits (AID 588481); type: functional
[10] = target: T3, High affinity choline transporter 1 (Homo sapiens, UniProt Q9GZV3); assay: CHT inhibitors, dose response, cell-based, 10-point CRC, membrane potential dye (AID 588401); type: functional;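 further: membrane potential dye fluorescence of choline-evoked depolarization via CHT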
T3 sequence (Q9GZV3 whole entry): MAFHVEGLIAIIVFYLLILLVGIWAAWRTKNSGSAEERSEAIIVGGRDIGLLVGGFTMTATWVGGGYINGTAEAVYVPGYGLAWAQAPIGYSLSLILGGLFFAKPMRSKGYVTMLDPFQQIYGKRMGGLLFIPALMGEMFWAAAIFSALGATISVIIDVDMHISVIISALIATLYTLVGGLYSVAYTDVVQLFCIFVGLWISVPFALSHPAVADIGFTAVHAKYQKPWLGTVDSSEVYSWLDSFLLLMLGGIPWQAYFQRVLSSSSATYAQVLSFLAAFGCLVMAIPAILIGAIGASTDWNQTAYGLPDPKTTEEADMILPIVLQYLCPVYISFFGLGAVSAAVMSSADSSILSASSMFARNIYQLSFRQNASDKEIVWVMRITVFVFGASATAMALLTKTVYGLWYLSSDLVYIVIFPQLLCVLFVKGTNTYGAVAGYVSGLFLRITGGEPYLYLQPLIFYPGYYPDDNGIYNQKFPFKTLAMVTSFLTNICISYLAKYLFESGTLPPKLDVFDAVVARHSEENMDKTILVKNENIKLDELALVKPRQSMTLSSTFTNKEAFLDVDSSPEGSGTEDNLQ

[11] = target: T3, High affinity choline transporter 1; assay: CHT inhibitors, dose response, cell-based, 5-point CRC, membrane potential dye (AID 504840); type: functional
[12] = target: T4, Ubiquitin-conjugating enzyme E2 N (Homo sapiens, UniProt P61088); type: functional
T4 sequence (P61088 whole entry): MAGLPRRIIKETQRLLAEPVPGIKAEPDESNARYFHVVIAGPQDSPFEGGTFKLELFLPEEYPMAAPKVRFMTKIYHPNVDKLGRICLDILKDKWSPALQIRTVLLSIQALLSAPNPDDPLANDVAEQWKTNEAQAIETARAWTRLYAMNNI

[13] = target: T4, Ubiquitin-conjugating enzyme E2 N; type: functional; remark: listed apart in the source
[14] = target: Nonstructural protein 1 (Influenza A virus, UniProt Q194T2); type: functional, Influenza A virus (A/California/07/2009(H1N1))
[15] = target: T5, Bcl-2-related protein A1 (Mus musculus, UniProt Q07440); type: functional;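 further: confirmatory dose–response counterscreen on Bfl-1, used to check hits from a UBC13 polyubiquitin inhibitor campaign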
T5 sequence (Q07440 whole entry): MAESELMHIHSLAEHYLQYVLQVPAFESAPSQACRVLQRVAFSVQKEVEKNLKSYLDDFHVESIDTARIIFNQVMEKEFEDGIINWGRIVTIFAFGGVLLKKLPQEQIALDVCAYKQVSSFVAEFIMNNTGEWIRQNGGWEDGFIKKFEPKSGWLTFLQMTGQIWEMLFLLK

[16] = target: T6, DNA repair protein RAD52 homolog (Homo sapiens, UniProt P43351); type: functional, biochemical
T6 sequence (P43351 whole entry): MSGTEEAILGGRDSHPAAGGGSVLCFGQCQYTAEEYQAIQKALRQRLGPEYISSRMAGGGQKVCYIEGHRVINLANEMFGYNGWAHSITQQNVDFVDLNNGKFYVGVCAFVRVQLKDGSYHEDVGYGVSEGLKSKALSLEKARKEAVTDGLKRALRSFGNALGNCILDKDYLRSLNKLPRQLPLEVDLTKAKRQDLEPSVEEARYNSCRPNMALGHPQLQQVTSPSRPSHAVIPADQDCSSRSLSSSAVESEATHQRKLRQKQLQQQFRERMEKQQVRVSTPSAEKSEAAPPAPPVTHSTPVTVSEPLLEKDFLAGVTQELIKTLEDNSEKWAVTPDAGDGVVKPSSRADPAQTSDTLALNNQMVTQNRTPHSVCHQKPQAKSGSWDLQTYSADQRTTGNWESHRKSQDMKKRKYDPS

[17] = target: T7, Alkaline phosphatase, tissue-nonspecific isozyme (Homo sapiens, UniProt P05186); assay: TNAP enzyme inhibition by screening hits, dose response, selectivity assay for mouse IAP inhibitor project, biochemical, human TNAP, uHTS hits (AID 488906); type: functional
T7 sequence (P05186 whole entry): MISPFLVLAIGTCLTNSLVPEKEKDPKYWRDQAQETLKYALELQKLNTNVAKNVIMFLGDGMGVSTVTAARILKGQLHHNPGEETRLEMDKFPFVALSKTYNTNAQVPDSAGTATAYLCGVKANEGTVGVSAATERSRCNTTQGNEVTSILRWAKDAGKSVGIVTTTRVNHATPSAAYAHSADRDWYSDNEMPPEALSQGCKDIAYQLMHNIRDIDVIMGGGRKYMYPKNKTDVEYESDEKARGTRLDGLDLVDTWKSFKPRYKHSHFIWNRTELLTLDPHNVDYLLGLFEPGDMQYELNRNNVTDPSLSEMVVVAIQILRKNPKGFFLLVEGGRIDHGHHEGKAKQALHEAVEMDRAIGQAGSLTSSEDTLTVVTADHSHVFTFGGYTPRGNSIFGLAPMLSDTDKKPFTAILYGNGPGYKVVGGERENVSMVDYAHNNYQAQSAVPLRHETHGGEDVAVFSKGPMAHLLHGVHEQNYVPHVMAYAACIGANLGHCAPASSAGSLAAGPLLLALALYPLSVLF

[18] = target: Intestinal-type alkaline phosphatase (Homo sapiens, UniProt P09923); assay: inhibition of human intestinal alkaline phosphatase – biochemical, dose response (AID 488876); type: functional
[19] = target: Intestinal-type alkaline phosphatase (Mus musculus, UniProt P24822); assay: PubChem AID 488785; type: functional
[20] = target: Cytochrome P450 2C9 (Homo sapiens, UniProt P11712)
[21] = test system: Vero; assay: Vero cell cytotoxicity, cytotoxicity control for flavivirus capping enzyme inhibitors (AID 588742); type: functional; settings: Chlorocebus sabaeus

Sequence of Delta-type opioid receptor (P41143 whole entry): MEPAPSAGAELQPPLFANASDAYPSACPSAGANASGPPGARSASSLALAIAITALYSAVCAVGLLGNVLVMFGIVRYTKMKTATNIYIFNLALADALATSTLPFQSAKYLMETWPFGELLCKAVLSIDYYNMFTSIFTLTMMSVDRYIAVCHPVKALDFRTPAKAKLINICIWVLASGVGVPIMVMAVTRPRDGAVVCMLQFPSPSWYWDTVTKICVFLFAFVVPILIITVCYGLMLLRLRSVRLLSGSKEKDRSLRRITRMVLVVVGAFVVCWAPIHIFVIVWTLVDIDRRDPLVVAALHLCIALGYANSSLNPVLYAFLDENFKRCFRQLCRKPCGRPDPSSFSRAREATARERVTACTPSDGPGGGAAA
Sequence of Mu-type opioid receptor (P35372 whole entry): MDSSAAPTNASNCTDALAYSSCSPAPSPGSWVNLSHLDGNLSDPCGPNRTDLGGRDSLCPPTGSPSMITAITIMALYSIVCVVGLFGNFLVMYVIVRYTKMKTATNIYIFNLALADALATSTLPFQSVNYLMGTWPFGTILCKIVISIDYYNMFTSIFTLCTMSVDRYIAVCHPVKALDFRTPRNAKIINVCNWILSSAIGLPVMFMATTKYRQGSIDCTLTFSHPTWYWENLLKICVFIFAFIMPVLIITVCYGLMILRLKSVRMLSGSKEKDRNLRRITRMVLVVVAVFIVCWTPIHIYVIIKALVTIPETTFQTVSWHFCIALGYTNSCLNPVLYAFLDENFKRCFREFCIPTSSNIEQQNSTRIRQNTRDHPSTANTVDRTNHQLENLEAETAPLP
Sequence of 5-hydroxytryptamine receptor 5A (P47898 whole entry): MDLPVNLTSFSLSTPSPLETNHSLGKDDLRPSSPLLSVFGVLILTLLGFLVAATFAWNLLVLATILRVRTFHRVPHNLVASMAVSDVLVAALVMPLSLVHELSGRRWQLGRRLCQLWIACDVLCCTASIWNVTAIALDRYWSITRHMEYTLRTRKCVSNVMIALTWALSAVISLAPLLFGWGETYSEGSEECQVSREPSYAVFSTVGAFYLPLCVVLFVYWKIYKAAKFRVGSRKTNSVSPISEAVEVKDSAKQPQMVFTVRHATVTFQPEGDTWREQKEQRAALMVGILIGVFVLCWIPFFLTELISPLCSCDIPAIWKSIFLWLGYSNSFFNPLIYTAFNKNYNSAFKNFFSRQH
Sequence of Nonstructural protein 1 (Q194T2 whole entry): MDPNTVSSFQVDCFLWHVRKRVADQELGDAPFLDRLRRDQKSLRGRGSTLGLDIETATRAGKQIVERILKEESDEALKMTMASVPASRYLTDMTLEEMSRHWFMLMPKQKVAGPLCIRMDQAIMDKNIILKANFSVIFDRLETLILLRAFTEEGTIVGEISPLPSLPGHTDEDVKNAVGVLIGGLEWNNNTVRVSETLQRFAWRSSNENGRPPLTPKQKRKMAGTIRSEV
Sequence of Intestinal-type alkaline phosphatase (Mus musculus, UniProt P24822) (P24822 whole entry): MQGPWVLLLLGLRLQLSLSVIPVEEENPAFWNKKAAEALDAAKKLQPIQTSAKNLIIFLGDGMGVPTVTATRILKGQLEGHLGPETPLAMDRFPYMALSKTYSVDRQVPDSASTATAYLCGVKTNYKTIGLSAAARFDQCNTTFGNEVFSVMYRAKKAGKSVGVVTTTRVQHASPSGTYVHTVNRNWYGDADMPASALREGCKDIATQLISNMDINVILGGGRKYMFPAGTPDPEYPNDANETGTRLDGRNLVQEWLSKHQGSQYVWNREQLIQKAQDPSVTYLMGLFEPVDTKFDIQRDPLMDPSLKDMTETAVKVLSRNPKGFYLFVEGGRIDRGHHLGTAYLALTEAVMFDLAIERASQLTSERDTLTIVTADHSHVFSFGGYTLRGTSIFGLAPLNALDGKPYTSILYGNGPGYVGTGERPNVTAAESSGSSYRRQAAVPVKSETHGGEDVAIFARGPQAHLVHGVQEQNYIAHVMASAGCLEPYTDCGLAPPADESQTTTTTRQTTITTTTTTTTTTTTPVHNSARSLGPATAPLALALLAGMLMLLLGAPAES
Sequence of Cytochrome P450 2C9 (P11712 whole entry): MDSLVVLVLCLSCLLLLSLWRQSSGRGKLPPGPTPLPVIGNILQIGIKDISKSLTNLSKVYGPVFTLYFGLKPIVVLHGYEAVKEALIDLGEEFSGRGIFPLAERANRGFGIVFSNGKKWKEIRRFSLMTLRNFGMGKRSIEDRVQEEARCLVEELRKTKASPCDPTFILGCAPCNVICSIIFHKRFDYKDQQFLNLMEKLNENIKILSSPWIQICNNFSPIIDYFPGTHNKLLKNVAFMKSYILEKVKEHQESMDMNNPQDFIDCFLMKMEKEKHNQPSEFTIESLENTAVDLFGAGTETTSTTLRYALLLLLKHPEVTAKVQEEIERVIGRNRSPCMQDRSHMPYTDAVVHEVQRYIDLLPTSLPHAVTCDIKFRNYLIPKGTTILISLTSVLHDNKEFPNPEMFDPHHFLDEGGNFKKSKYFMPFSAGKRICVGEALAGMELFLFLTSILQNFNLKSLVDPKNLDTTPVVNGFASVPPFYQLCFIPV
Sequence of Intestinal-type alkaline phosphatase (Homo sapiens, UniProt P09923) (P09923 whole entry): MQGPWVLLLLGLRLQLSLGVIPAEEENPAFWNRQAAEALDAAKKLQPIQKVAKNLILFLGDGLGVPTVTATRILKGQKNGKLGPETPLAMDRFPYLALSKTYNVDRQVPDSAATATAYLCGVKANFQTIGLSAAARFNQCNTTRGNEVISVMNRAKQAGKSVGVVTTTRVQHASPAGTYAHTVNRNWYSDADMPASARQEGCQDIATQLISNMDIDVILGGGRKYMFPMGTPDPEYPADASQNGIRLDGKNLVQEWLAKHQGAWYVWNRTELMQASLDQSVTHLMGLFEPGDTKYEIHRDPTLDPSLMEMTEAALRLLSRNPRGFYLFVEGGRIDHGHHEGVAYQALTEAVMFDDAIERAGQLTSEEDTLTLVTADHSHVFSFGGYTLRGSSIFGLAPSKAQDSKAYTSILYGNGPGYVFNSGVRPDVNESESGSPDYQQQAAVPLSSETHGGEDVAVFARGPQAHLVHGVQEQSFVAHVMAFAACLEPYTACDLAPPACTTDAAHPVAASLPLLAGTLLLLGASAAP

With `CCNC(=O)CCc1nc(-c2ccc(OCC)cc2)no1` the IC50 [1] was > 80 µM (inactive).

With `CN1C2C=C(N(CCc3ccccc3)C(=O)c3ccc(Cl)cc3)CC1CC2` (stereo not given) the EC50 [2] was > 92.5 µM (inactive), the EC50 [3] was 67.3 µM (inactive) and the EC50 [4] was > 92.5 µM (inactive). For the same compound, the EC50 [5] was 0.531 µM (active).

With `C[C@H]1c2cccc(O)c2C(=O)C2C(=O)C3(O)C(=O)C(C(N)=O)C(=O)[C@@H](N(C)C)[C@@H]3[C@@H](O)[C@@H]21` (stereo not given in full) the AC50 [6] was 0.882 µM (active) and the AC50 [7] was 12.3 µM (active).

For `COc1ccc2c(Cl)c(-c3nnc(SCC(=O)c4ccccc4)n3C)sc2c1`, the EC50 [2] was 26.5 µM (inactive), the EC50 [3] was 10.3 µM (inactive) and the EC50 [4] was > 92.5 µM (inactive). For the same compound, the EC50 [5] was 0.668 µM (active).

In the case of `CCOC(=O)C1=C(C)N(CC(C)C)C(=O)/C1=C\c1cccs1`, the EC50 [8] is reported as > 99 µM (inactive) and the EC50 [9] is reported as > 99 µM (inactive).

With `N=C1CCCN1CC(=O)c1ccc(Br)cc1` the IC50 [10] was 1.06 µM (active) and the IC50 [11] was 6.07 µM (active).

With `CN(C)CCCNC(=O)c1ccc(-c2cc(O)c3ncccc3c2)cc1` the IC50 [12] was 3.89 µM (active), the IC50 [13] was 3.15 µM (active) and the IC50 [14] was 4.25 µM (active). The IC50 [15] was 7.49 µM (active) and the AC50 [16] was 0.849 µM (active).

For `N#Cc1c(SCC(=O)Nc2nc3ccccc3s2)sc2c(O)cc(O)nc12`, the IC50 [17] was > 100 µM (inactive), the IC50 [18] was > 100 µM (inactive) and the IC50 [19] was 18.8 µM (active).

In the case of `O=C(CSc1nnc2sc3ccccc3n12)NCc1ccco1`, the AC50 [20] is reported as “inconclusive”.

In the case of `Cc1ccc(-c2cc(C(=O)NCc3ccco3)c3ccccc3n2)s1`, the CC50 [21] is reported as > 40 µM (active).
